Measured values taken from patent US8008260B2, “Methods of protecting against apoptosis using lipopeptides” (Cleveland Clinic Foundation, priority 2005, dated 2011).
Peptide text beside a SMILES is read from it. * marks the point of attachment. Propyl(2R-PamO,3-PamO) = CCCCCCCCCCCCCCCC(=O)OC[C@H](C*)OC(=O)CCCCCCCCCCCCCCC

Experiments:
ICR mice [1] = assay: NOAEL determination, i.p. injection of increasing doses, two-week observation; assay type: in vivo
Experimental: The dose of NOAEL (No Obvious Adverse Effects Level) was determined by injecting intraperitoneally (i.p) ICR mice with the increasing doses of CBLB601 (0.3, 1, 3, 10, 30, 60, 100 μg/mouse). Control mice were injected with PBS. […] During the first week they were weighed daily. […] Thus, NOAEL for CBLB601 was determined to be 30 μg/mouse.

NIH Swiss mice = assay: Protection from lethal total body gamma radiation, lipopeptides s.c. 30 minutes prior; assay type: in vivo; settings: for survival post-treatment: <0.1 MTD
Experimental: Lipopeptides are potent activators of NF-κB and, as such, may act as inhibitors of apoptotic death. To determine whether lipopeptides function as radioprotectants, various lipopeptides were initially tested to determine the maximal tolerable dose (MTD). Various lipopeptides were then tested to measure their protective effect in NIH Swiss mice to lethal hematopoietic or nd gastrointestinal syndromes after exposure to 10 Gy or 13-15 Gy of total body gamma radiation, respectively. Lipopeptides (0.3-10 μg/mouse) were administered subcutaneously 30 minutes prior to irradiation.
The results of a representative experiment using R-PAM2C-SKKKK (SEQ ID NO: 8) (hereafter, this compound is called, CBLB601) at <0.1 MTD are shown in FIG. 3. As expected, control mice irradiated with 10 Gy died between 11 and 15 days post-treatment, while all animals that received CBLB601 lived beyond 35 days post-treatment. Similarly, control mice irradiated with 13 Gy died between 6 and 10 days post-treatment, while all but one animal that received CBLB601 lived beyond 35 days post-treatment. The radioprotective ability of CBLB601 was further analyzed by measuring the effect of radiation on spleen size.

ICR mice [2] = assay: Radiation LD50/30 and dose modification factor (DMF30); assay type: in vivo
Experimental: To determine DMF (dose modification factor), 3 μg of CBLB601/mouse was injected i.m. 24 hr prior to irradiation and control mice were injected with PBS. Both drug-injected and control groups received a single dose of TBI covering the dose range that leads to 10-90% mortality within the chosen time intervals (7 days for the gastrointestinal syndrome mortality, and 30 days for the hematopoietic syndrome mortality). The percent mortality-radiation dose graphs were built and LD50/7 and LD50/30 (LD50 at 7 days and 30 days, respectively) were calculated using probit or logit statistical analysis. DMF (also known as dose reduction factor, DRF) was calculated as a ratio of radiation LD50 for CBLB601-treated groups and radiation LD50 for vehicle-treated groups of mice for the chosen survival time point, 7 or 30 days. To calculate DMF30, which is the DMF at day 30 post-irradiation, the radiation LD50/30 values for mice treated with PBS or 3 μg of CBLB601 was determined. For this, PBS-injected groups were irradiated with doses of 6, 6.5, 7, and 7.7 Gy of TBI, and CBLB601-injected groups were irradiated with doses of 10, 10.5, 11, 11.5, and 12 Gy of TBI. […] However, inconsistency in the response to some radiation doses (7 Gy appeared non-toxic whereas 6.5 Gy caused 60% lethality at 30 days) in the control mice precluded an accurate calculation of the DMF30 for CBLB601. Nevertheless, it was expected that the LD50/30 for ICR mice was around 7 Gy [an average for the majority of mouse strains; Monobe et al., Radiother Oncology 73 Suppl 2: S12709, 2004)]. Thus, the value of DMF30 for CBLB601 was estimated roughly as ˜1.6.

ICR mice [3] = assay: Immune status of mice rescued from TBI (spleen and thymus weight, histology, flagellin immunization); assay type: in vivo
Experimental: To check the status of their immune systems, ICR mice were exposed to lethal (10 Gy) or non-lethal (6 Gy) doses of TBI 24 hr after they had been injected (i.m.) with 3 μg CBLB601/mouse or PBS. Groups of five mice from each condition were sacrificed very three days and their spleens and thymuses were removed and weighed. The weights of the spleens were normalized to the body weights of the corresponding animals and the results are presented in FIG. 15. PBS-treated mice that were exposed to 6 Gy of radiation took about 13-14 days to restore their spleens to normal weights, whereas CBLB601-treated mice exposed to 6 Gy of radiation had normal spleen weights by day 8. […] It took a longer period of time (˜30 days) to restore the thymuses to normal weights (not shown).
The spleens and thymuses from control and CBLB601-injected mice were examined microscopically for morphological changes at 3, 10 and 30 days after irradiation. […] There was no evidence of recovery of the splenic white pulp depletion in either group at day 10. Regenerative lymphoid hyperplasia in the thymus was evident in both groups at day 10, with the regeneration slightly more advanced in the control that in the CBLB601-treated mice.
To test the immune response of mice rescued from a lethal dose of gamma-irradiation (10 Gy of TBI) by CBLB601, several groups of such mice were subjected to immunization with a strong antigen, Salmonella flagellin. The mice were first immunized at 8, 18, or 20 weeks after irradiation, at which time they were 18, 25, and 33 weeks of age, respectively. Non-irradiated naïve mice at 29 weeks of age were used as a positive control for the immune response. The mice received a boost of flagellin one week after the first immunization, and another boost three weeks after the 2nd boost; anti-flagellin antibody titers were measured in mouse serum. To test the secondary immune response, the mice were bled again a month later to insure reduction of the antibody titers. This was followed by a 3rd boost of the antigen injection and measurement of anti-flagellin antibodies titers 10 days later. At the time of the 3rd boost, the irradiation mice were 38, 30, and 23 weeks old, and the control mice were 34 weeks old.

[4] = Solubility of the lipopeptides
[5] = 3 μg/mouse i.m. 24 hr prior to irradiation, ProBit analysis

**Q.** What does the source list for `CCCCCCCCCCCCCCCC(=O)OC[C@H](CSC[C@H](N)C(=O)N[C@@H](CO)C(=O)N[C@@H](CCCCN)C(=O)N[C@@H](CCCCN)C(=O)N[C@@H](CCCCN)C(=O)N[C@@H](CCCCN)C(=O)O)OC(=O)CCCCCCCCCCCCCCC` [CBLB601, R-PAM2C-SKKKK] (H-C(Propyl(2R-PamO,3-PamO))SKKKK-OH)?
**A.** differences between treated and control mice (ICR mice [1]; 30 μg dose i.p.): no noticeable differences; morbidity (ICR mice [1]; 60 μg dose i.p., around 3-4 days after treatment): signs of morbidity, such as slow motion and scruffy fur; mortality (ICR mice [1]; 100 μg/mouse i.p., 1-2 days post-treatment): Mortality was observed; body weight versus control mice (ICR mice [1]; 0.3-100 μg/mouse i.p., weighed daily in first week): no differences in weight; NOAEL (No Obvious Adverse Effects Level) (ICR mice [1]; i.p., ICR mice): 30 μg/mouse; survival post-treatment (NIH Swiss mice; 10 Gy, all animals): > 35 days; effect of radiation on spleen size (NIH Swiss mice; 13 Gy total body gamma irradiation (FIG. 4)): significantly less reduction in the size of the spleen; survival post-treatment (NIH Swiss mice; 13 Gy, all but one animal): > 35 days; protection of the thymus from radiation (NIH Swiss mice; data not shown): protected the thymus from radiation; radiation LD50/30, average (ICR mice [2]; [5]): ~11.32 Gy; radiation LD50/30, range (ICR mice [2]; [5]): 11.07-11.61 Gy; DMF30 (dose modification factor at day 30) (ICR mice [2]; 3 μg/mouse i.m. 24 hr prior, control LD50/30 taken as around 7 Gy from literature): ~1.6; time to restore the thymuses to normal weights (ICR mice [3]; 3 μg/mouse i.m. 24 hr before TBI, not shown): ~30 days; day by which spleen weights were normal (ICR mice [3]; 6 Gy TBI, 3 μg/mouse i.m. 24 hr before): ≤ 8 days; day by which spleen weights were completely restored (ICR mice [3]; 10 Gy TBI, 3 μg/mouse i.m. 24 hr before): 13 to 14 days; spleen histology, extramedullary hematopoiesis (ICR mice [3]; 10 days post-irradiation, 10 Gy): mild to moderate multifocal extramedullary hematopoiesis (EMH); humoral immune response against flagellin (ICR mice [3]; mice rescued from 10 Gy TBI, immunized 8, 18 or 20 weeks after irradiation): robust humoral immune response against flagellin that was indistinguishable from that of the naïve control mice; Solubility [4]: Excellent
